± gives the expanded uncertainty stated by the source.
Experiment: refractive index (Na D-line) (dimensionless); xn = mol fraction of the nth substance listed
Conditions: 100 kPa, Liquid, Standard Abbe refractometry

CCC(C)=O [butanone] + CCCCO
refractive index
Conditions | x1 = 0.0997 | x1 = 0.1999 | x1 = 0.3003 | x1 = 0.4008 | x1 = 0.5003 | x1 = 0.6001 | x1 = 0.6992 | x1 = 0.7991 | x1 = 0.899 | x1 = 1
288.15 K | 1.39943 ± 0.00036 | 1.3975 ± 0.00037 | 1.39558 ± 0.00037 | 1.39362 ± 0.00037 | 1.39169 ± 0.00038 | 1.38971 ± 0.00038 | 1.38771 ± 0.00039 | 1.38569 ± 0.00039 | 1.38364 ± 0.0004 | 1.38153 ± 0.0004
293.15 K | 1.39733 ± 0.00036 | 1.39533 ± 0.00037 | 1.39333 ± 0.00037 | 1.39131 ± 0.00037 | 1.38933 ± 0.00038 | 1.38729 ± 0.00038 | 1.38525 ± 0.00039 | 1.38316 ± 0.00039 | 1.38108 ± 0.0004 | 1.37892 ± 0.0004
298.15 K | 1.39524 ± 0.00036 | 1.39315 ± 0.00037 | 1.39107 ± 0.00037 | 1.38899 ± 0.00037 | 1.38696 ± 0.00038 | 1.38486 ± 0.00038 | 1.38276 ± 0.00039 | 1.38062 ± 0.00039 | 1.37849 ± 0.0004 | 1.37631 ± 0.0004
303.15 K | 1.3931 ± 0.00036 | 1.39095 ± 0.00037 | 1.38882 ± 0.00037 | 1.38669 ± 0.00037 | 1.38457 ± 0.00038 | 1.38241 ± 0.00038 | 1.38025 ± 0.00039 | 1.37807 ± 0.00039 | 1.37589 ± 0.0004 | 1.37366 ± 0.0004
308.15 K | 1.39096 ± 0.00036 | 1.38872 ± 0.00037 | 1.38651 ± 0.00037 | 1.38433 ± 0.00037 | 1.38215 ± 0.00038 | 1.37995 ± 0.00038 | 1.37775 ± 0.00039 | 1.37551 ± 0.00039 | 1.3733 ± 0.0004 | 1.37102 ± 0.0004
313.15 K | 1.38881 ± 0.00036 | 1.38649 ± 0.00037 | 1.38421 ± 0.00037 | 1.38196 ± 0.00037 | 1.37973 ± 0.00038 | 1.37748 ± 0.00038 | 1.37522 ± 0.00039 | 1.37293 ± 0.00039 | 1.37065 ± 0.0004 | 1.36834 ± 0.0004
318.15 K | 1.38664 ± 0.00036 | 1.38427 ± 0.00037 | 1.38192 ± 0.00037 | 1.37958 ± 0.00037 | 1.37728 ± 0.00038 | 1.37496 ± 0.00038 | 1.37265 ± 0.00039 | 1.37031 ± 0.00039 | 1.36798 ± 0.0004 | 1.36565 ± 0.0004
323.15 K | 1.38447 ± 0.00036 | 1.38203 ± 0.00037 | 1.37959 ± 0.00037 | 1.37718 ± 0.00037 | 1.3748 ± 0.00038 | 1.37244 ± 0.00038 | 1.37008 ± 0.00039 | 1.36769 ± 0.00039 | 1.36531 ± 0.0004 | 1.36294 ± 0.0004
